Experimental data as given in patent US12569495B2, “Inhibitors of porcine reproductive and respiratory syndrome virus” (UNIVERSITY OF CONNECTICUT, priority 2020, dated 2026).
Values joined by “and” are separate entries in the source; they are usually repeats but may differ in a detail not shown here. Equal values may be shown once. “Also recorded” adds a separate entry of the source.

Tests used:
[1] = system: PRRSV strain VR-2332; assay: qRT-PCR for PRRSV RNA in infected PAMs; format: cell-based
Method: (§1) Total RNA was extracted from PAMs infected with PRRSV using RNeasy Mini Kit (Qiagen, Germantown, MD) according to the manufacturer's instruction. RNA concentrations were measured using a Nanodrop spectrophotometer (Thermo Fisher Scientific). GAPDH was used as a housekeeping gene for gene expression normalization. Data were processed with the software associated with ABI 7500.
For PRRSV infection of PAM cells, PAMs were seeded one day prior to infection. […] Cells were inoculated with VR-2332, SDSU73, NADC30 or Lelystad PRRSV at MOI=0.1 for 1 h. The 24 h cell medium supernatant was stored at −80° C. until use.

[2] = Rat acute toxicity study; format: in vivo, Sprague Dawley laboratory male rats
Method: The study was conducted as: • 1. Eight 10-week Sprague Dawley laboratory male rats (˜260 g each) were randomly selected into two groups (n=4), with group 1 for control and group 2 for B7-treatment. • 2. Day 0, injection of B7 drug. The intramuscular (IM) injection was vehicle for group 1, and 4 mg/kg B7 per rat for group 2, with 0.15 mL of volume per rat, to the left thigh region. The B7 was dissolved in vehicle containing 30% DMSO and 50% propylene glycol (PG), and 20% 20 mM Tris·HCl, pH 8.0. • 3. Days 1-7 observation of rats with daily body weight and temperature measurement and making records of any abnormal behavior. • 4. Day 7 necropsy: Euthanize the rats with CO2, immediately followed by blood sample collection from heart. Conduct postmortem rat gross-anatomic pathology analysis (brain, heart, lung, liver, kidney, spleen). • 5. Conduct clinical pathology analysis (CBC/Chemistry by IDDEX Bioanalytics) for the collected blood samples.

[3] = system: PRRSV strains VR-2332, SDSU73, NADC30 (Type II), or Lelystad (Type I); assay: qRT-PCR for PRRSV RNA in PAMs infected by different strains; format: cell-based; conditions: 15 μM; 4 h pre-treatment, 24 h post
Method: as §1
For PRRSV infection of PAM cells, PAMs were seeded one day prior to infection. Control cells were treated with DMSO and test cells were treated with the selected screening compounds (5-20 μM) for 4 h before inoculation, during the 1 h PRRSV inoculation, and for 24 h after inoculation. Cells were inoculated with VR-2332, SDSU73, NADC30 or Lelystad PRRSV at MOI=0.1 for 1 h. The 24 h cell medium supernatant was stored at −80° C. until use.
The inhibitory effect of B7 was further tested on multiple strains of PRRSV. […] This inhibitory effect is further confirmed by viral titration results for the culture media of infected PAMs, with 2.8-3.1 log reduction of viral titers across the 3 Type II PRRSV strains and 2.2 log reduction of viral titer for the type I strain (Lelystad) by 15 μM B7 treatment (FIG. 5D). Thus, compound B7 indeed inhibits the PRRSV infection of PAMs. […]

[4] = system: porcine alveolar macrophages (PAMs); assay: MTT cytotoxicity assay in PAMs; format: cell-based, pig
Method: (§2) The cytotoxicity of selected screening compounds was determined in porcine alveolar macrophages (PAMs) the principal host cell of productive PRRSV infection. Briefly, various concentrations of the compounds were added to PAMs seeded in 24-well plates and incubated for 24 h. Then 50 μl of the MTT assay labeling reagent (In Vitro Toxicology Assay Kit, MTT based, Sigma-Aldrich) were added to each well and incubated for 4 h before 500 μl of the solubilization solution was added into each well to fully dissolve the formazan crystal by overnight incubation. The absorbance of samples was measured using a spectrophotometry microplate reader at 600 nm. PAMs treated with DMSO served as the controls.

[5] = MTT cytotoxicity assay in PAMs; format: cell-based, pig; conditions: pig, porcine alveolar macrophages (PAMs), 24 h incubation, read-out: LC50, MTT assay
Method: as §2

[6] = rat, IM 4 mg/kg, Day 7 blood, mean n=4

## Cc1cc(F)ccc1S(=O)(=O)Nc1nc2ccccc2nc1Nc1cccc(S(=O)(=O)N2CCOCC2)c1 [Compound B7, 4-fluoro-2-methyl-N-[3-(3-morpholin-4-ylsulfonylanilino)quinoxalin-2-yl]benzenesulfonamide]
[1]; 0, 5, 10, 15, 20 μM, 4 h pre-treatment, 1 h inoculation MOI=0.1, 24 h after inoculation
  inhibition of PRRSV infection of PAMs (qRT-PCR, viral RNA): dose-dependent inhibition; also recorded: inhibits PRRSV infection of porcine alveolar macrophages (PAMs)
[1]; 15 μM, 4 h pre-treatment only, no post-treatment, VR-2332
  inhibitory effect on PRRSV infection (qRT-PCR), pre-treatment alone: minimal impact
[2]; rat, IM 4 mg/kg, Day 7 blood
  Lipemia Index: Normal
[2]; [6]
  ALB/GLOB ratio: 1.2
  ALP: 277.5 U/L
  ALT: 95.5 U/L
  AST: 210.3 U/L and 210.25 U/L
  Albumin: 3.5 g/dL
  BUN: 16.8 mg/dL
  BUN/Creatinine Ratio: 76.7
  Basophil: 13.5 µL⁻¹
  Basophils (%): 0.3%
  Bicarbonate TCO2: 32.8 mmol/L
  Bilirubin - Conjugated: 0.0 mg/dL
  Bilirubin - Unconjugated: 0.1 mg/dL
  Calcium: 11.8 mg/dL
  Chloride: 97.0 mmol/L
  Cholesterol: 76.0 mg/dL
  Creatine kinase: 585.5 U/L
  Creatinine: 0.2 mg/dL
  Eosinophil: 19.0 µL⁻¹
  Eosinophils (%): 0.5%
  Globulin: 2.9 g/dL
  Glucose: 175.5 mg/dL
  HCT: 50.1% and 50.075%
  HGB: 14.4 g/dL and 14.35 g/dL
  Lymphocyte: 3188.0 µL⁻¹
  Lymphocytes (%): 83.1% and 83.125%
  MCH: 18.9 pg
  MCHC: 28.7 g/dL
  MCV: 65.8 fL
  Monocyte: 179.5 µL⁻¹
  Monocytes (%): 4.8%
  NA/K Ratio: 22.3
  Neutrophil: 425.0 µL⁻¹
  Neutrophil (%): 11.4% and 11.35%
  Phosphorus: 13.0 mg/dL
  Potassium: 6.7 mmol/L
  RBC: 7.6 M/μL L
  Sodium: 145.8 mmol/L
  Total Bilirubin: 0.1 mg/dL
  Total Protein: 6.4 g/dL
  WBC: 3.8 K/μL
[2]; single IM 4 mg/kg, Day 7
  blood cell counts, B7-treatment versus control: no obvious change for blood cell counts
  blood chemistry analysis, B7 versus control: only ALP and AST were changed slightly with statistical significances
[2]; single IM 4 mg/kg, Day 7 necropsy, T4 = B7 rat
  gross pathology, kidney: cortical surface of kidney had multiple, mild tan discolorations
[2]; single IM 4 mg/kg, Day 7 necropsy, T = B7 rats, C = control rats
  gross pathology, liver: multifocal to coalescing mild pale tan discoloration on the surface of liver of C2, T3 and T4
[2]; single IM 4 mg/kg, Days 1-7
  daily weight gain and body temperature: normal daily weigh gain and body temperature
[2]; single IM 4 mg/kg, n=4
  signs of abnormality during the 7-day study: No signs of abnormality were observed
[3]
  viral RNA detected in infected PAMs (qRT-PCR), all PRRSV strains: significantly decreased the viral RNA; also recorded: significantly inhibited the infection
[4]; 24 h
  concentrations well-tolerated by PAMs (MTT assay): below 25 μM
[4]; Sus scrofa, Macrophage, 24 h incubation, read-out: IC50, cell viability in MTT assay
  IC50: 81.7 µM
[5]
  CC50 at 24 h: 81.7 µM
